According to ChEMBL document CHEMBL5465560, “Selectivity Literature for EUbOPEN Chemogenomic Library” (2024):
Blank lines part the entries; values can stand above or below the molecule they belong to.

Key:
[1] = biological target: T1, Ephrin type-B receptor 2 (Homo sapiens) (UniProt P29323); conditions: at 10 µM
T1 sequence (whole entry): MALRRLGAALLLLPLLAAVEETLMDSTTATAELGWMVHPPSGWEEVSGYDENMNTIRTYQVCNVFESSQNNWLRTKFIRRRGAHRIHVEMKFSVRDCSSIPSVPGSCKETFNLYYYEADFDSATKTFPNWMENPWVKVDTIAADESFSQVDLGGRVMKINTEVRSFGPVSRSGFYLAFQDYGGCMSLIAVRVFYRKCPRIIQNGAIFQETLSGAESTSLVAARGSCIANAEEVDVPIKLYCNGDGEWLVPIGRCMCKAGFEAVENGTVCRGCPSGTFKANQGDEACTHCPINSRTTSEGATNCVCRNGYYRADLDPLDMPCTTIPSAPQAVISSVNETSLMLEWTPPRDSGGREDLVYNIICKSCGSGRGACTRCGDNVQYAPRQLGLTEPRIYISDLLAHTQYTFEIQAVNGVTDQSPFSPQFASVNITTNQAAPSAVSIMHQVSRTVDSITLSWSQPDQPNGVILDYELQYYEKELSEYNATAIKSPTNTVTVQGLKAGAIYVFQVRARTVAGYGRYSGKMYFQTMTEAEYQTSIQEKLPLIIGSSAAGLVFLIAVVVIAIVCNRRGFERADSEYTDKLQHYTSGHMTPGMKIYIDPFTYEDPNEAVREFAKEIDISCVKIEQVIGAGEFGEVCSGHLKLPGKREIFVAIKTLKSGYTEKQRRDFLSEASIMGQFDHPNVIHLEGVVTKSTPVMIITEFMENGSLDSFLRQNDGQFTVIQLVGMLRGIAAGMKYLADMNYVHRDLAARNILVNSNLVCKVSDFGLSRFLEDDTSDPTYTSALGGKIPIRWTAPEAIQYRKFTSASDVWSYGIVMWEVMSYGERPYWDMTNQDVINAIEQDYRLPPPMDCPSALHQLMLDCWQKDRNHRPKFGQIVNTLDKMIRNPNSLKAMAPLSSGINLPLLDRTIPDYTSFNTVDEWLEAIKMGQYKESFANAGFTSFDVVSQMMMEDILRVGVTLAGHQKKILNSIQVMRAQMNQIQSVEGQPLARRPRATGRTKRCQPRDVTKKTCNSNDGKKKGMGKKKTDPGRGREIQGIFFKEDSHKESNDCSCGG

[2] = biological target: Leucine-rich repeat serine/threonine-protein kinase 2 (Homo sapiens, UniProt Q5S007); experiment: Selectivity interaction (Kinase panel (Invitrogen)) EUB0000639a LRRK2; conditions: at 200 nM
[3] = biological target: Ribosomal protein S6 kinase alpha-2 (Homo sapiens) (UniProt Q15349); experiment: Selectivity interaction (ActivX KiNativ screen (kinase selectivity in THP-1 cell lysates)) EUB0000639a RPS6KA2; assay type: subcellular; conditions: lysate, at 0.01 µM
[4] = biological target: T2, Serine/threonine-protein kinase Nek3 (Homo sapiens) (UniProt P51956); experiment: Selectivity interaction (ActivX KiNativ screen (kinase selectivity in THP-1 cell lysates)) EUB0000639a NEK3; assay type: subcellular; conditions: lysate
T2 sequence (whole entry): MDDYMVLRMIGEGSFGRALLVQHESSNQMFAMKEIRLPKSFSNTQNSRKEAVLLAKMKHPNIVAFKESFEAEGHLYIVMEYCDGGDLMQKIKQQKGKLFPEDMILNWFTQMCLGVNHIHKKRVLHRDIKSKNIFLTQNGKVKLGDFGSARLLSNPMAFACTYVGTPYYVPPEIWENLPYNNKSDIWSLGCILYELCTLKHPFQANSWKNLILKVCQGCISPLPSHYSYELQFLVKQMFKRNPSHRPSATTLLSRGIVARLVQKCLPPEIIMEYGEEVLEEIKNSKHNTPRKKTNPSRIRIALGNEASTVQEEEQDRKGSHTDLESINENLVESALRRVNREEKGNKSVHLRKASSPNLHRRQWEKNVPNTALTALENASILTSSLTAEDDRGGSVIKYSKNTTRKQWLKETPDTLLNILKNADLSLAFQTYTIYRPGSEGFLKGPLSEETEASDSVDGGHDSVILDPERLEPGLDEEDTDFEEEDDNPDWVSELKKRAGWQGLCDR

[5] = biological target: Myosin-IIIa (Homo sapiens) (UniProt Q8NEV4); experiment: Selectivity interaction (KinomeScan (DiscoverX)) EUB0000045b MYO3A
[6] = biological target: T3, Serine/threonine-protein kinase ULK2 (Homo sapiens) (UniProt Q8IYT8); experiment: Selectivity interaction (KinomeScan (DiscoverX)) EUB0000655a ULK2; conditions: at 10 µM
T3 sequence (whole entry): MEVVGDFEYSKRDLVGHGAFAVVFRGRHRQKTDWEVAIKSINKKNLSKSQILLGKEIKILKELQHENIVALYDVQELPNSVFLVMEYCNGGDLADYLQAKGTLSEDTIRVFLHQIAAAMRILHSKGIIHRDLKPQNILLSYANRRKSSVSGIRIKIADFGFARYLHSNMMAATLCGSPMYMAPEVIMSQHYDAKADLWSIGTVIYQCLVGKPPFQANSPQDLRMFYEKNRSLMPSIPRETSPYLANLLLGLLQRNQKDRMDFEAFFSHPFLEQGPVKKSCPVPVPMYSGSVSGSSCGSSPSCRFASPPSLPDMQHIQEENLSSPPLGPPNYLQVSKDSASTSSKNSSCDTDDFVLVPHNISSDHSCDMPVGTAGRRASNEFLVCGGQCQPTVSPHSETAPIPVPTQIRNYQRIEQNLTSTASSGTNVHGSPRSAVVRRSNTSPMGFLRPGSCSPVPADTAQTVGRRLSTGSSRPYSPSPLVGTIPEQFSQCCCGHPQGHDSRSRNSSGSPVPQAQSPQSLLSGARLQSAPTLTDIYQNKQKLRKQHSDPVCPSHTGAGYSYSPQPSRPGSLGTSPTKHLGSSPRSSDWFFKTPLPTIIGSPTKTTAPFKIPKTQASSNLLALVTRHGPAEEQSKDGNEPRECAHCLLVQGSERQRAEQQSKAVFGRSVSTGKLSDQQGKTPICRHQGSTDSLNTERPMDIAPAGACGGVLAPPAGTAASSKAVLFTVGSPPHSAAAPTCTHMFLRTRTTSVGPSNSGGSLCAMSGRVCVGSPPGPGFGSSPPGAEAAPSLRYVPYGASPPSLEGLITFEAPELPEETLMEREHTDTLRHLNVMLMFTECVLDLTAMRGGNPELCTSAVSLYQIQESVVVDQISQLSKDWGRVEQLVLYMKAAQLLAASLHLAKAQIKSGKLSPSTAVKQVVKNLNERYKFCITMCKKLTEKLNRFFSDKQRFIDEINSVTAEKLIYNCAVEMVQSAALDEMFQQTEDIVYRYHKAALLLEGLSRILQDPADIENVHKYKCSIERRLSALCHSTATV

[7] = biological target: Calcium/calmodulin-dependent protein kinase type 1D (Homo sapiens) (UniProt Q8IU85); experiment: Selectivity interaction (Kinase panel (DSF assay)) EUB0001559a CAMK1D

Myosin-IIIa (Homo sapiens), sequence (Q8NEV4 whole entry): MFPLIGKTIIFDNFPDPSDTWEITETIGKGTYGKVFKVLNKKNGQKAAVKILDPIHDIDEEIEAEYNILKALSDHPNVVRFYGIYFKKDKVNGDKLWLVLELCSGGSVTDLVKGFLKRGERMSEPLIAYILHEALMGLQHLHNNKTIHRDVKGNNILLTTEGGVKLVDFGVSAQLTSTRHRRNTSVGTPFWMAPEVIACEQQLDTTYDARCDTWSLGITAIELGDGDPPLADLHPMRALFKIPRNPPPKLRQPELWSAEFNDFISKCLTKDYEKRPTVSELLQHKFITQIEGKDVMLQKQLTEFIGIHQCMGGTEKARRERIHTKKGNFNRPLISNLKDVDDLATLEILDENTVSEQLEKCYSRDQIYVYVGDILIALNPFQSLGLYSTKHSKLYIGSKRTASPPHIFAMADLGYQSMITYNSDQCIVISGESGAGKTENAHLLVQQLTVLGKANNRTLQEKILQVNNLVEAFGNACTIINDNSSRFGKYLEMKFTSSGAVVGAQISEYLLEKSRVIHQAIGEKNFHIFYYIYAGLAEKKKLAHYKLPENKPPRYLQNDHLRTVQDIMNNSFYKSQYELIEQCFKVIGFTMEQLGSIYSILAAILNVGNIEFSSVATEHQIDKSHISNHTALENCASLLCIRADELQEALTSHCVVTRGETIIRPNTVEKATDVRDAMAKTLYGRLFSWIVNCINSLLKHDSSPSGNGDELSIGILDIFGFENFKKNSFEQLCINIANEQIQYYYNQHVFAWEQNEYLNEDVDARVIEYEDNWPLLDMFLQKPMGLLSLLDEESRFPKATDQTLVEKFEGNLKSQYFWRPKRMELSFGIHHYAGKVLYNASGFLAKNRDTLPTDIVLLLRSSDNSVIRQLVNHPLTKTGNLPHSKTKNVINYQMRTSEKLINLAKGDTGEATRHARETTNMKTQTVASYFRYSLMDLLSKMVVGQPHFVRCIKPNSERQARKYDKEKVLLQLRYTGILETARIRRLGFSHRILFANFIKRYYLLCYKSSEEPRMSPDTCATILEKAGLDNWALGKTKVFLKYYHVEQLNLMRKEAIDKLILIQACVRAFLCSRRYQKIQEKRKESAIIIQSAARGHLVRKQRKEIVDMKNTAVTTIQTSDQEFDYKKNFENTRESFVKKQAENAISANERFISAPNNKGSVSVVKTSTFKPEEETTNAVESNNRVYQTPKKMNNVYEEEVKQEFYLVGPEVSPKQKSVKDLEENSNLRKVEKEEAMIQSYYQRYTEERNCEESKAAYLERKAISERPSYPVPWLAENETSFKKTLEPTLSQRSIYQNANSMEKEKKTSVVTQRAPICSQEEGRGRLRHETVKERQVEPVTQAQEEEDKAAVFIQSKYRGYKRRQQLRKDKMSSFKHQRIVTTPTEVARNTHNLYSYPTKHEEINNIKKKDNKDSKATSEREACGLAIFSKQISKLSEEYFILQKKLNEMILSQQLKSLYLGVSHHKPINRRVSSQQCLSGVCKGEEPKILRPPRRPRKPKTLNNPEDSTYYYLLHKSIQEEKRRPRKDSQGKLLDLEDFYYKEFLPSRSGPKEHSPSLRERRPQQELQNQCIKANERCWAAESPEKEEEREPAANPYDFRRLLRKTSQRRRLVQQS
Leucine-rich repeat serine/threonine-protein kinase 2, sequence (Q5S007 whole entry): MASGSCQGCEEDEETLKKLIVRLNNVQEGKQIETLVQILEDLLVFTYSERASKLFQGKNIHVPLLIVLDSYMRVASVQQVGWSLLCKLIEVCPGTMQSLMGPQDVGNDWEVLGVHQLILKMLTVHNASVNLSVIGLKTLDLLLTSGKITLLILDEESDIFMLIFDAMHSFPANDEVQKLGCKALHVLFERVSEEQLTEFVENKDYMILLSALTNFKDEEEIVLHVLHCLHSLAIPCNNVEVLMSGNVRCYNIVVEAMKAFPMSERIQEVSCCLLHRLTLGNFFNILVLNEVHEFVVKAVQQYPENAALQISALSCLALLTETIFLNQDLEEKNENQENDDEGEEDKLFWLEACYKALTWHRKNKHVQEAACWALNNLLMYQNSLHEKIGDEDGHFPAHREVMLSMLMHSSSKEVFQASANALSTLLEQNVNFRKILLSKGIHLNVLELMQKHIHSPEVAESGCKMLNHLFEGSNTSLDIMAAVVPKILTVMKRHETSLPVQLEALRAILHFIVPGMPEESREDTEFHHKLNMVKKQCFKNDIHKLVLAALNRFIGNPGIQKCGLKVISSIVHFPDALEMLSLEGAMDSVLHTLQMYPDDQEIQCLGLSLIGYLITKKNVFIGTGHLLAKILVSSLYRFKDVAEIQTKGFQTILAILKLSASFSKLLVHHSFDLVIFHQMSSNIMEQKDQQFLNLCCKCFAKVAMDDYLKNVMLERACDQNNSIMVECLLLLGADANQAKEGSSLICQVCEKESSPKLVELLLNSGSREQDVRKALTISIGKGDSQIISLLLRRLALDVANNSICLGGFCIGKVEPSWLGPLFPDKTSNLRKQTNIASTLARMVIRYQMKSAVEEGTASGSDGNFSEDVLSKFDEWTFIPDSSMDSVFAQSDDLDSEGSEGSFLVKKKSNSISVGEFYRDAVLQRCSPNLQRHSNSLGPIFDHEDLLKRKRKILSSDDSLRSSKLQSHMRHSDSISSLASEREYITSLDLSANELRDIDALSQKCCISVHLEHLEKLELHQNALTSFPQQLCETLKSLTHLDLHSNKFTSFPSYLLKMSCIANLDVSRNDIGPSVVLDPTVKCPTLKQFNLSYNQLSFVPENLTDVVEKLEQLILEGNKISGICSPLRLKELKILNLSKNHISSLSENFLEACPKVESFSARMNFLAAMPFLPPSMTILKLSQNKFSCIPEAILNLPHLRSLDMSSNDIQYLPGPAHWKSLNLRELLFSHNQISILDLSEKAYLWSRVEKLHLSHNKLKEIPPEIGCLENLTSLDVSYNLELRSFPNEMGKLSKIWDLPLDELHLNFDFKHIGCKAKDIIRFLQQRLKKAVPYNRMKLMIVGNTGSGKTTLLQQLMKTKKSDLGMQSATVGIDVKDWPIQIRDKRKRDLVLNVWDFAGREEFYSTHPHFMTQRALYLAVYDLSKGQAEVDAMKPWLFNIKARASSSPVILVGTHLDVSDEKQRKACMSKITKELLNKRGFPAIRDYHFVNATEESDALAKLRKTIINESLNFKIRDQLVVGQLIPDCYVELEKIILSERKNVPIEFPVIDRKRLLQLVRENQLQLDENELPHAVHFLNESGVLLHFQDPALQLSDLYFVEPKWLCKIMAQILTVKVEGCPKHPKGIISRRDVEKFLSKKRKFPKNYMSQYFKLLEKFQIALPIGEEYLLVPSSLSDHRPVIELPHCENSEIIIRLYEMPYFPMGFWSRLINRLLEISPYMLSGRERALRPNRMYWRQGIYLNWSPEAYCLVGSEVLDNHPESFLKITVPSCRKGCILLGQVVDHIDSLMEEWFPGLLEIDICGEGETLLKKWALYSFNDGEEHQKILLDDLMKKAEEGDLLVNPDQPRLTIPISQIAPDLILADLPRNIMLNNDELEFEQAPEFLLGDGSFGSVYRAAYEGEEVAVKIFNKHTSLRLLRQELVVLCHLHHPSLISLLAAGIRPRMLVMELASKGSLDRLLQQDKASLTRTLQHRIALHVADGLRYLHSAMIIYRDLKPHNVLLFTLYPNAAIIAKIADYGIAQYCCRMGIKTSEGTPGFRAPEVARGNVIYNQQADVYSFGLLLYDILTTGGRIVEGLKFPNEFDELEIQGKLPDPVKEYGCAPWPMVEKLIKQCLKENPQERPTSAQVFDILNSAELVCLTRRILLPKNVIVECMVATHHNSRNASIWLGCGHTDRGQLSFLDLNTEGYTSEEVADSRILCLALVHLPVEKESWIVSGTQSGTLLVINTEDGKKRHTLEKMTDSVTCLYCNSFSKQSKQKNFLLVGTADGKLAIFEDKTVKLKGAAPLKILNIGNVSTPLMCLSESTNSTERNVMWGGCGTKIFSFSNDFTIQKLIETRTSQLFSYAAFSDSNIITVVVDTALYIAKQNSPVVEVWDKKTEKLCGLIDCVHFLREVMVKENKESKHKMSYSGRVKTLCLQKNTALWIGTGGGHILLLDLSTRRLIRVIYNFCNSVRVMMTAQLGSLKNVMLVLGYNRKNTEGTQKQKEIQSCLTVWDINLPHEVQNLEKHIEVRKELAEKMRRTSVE
Ribosomal protein S6 kinase alpha-2 (Homo sapiens), sequence (Q15349 whole entry): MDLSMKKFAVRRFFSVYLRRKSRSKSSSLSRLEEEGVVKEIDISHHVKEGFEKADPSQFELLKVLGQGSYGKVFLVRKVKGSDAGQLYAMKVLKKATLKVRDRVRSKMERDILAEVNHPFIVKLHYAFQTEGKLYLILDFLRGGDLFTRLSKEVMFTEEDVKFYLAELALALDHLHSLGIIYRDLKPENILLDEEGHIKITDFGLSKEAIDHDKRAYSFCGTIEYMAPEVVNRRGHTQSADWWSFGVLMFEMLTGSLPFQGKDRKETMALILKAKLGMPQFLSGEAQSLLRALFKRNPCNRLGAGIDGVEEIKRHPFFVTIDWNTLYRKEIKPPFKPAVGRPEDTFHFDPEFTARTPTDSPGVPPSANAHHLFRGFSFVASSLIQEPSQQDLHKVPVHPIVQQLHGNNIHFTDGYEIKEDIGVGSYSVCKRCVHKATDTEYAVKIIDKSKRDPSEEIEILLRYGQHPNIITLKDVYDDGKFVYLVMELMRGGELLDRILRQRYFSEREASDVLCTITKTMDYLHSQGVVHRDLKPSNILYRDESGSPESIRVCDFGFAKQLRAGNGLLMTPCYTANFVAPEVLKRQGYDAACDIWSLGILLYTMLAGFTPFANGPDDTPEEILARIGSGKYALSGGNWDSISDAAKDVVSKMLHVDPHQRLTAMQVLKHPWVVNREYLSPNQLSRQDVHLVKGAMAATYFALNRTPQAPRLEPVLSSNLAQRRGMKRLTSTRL

Structure (SMILES): Cc1cc([C@@H](C)Nc2ccccc2C(=O)O)c2nc(N3CCOCC3)cc(=O)n2c1 [AZD-6482]
- % of control [1]: 100%

- % of inhibition [2]: 85.1%
- % of inhibition [3]: -10.4%
- % of inhibition ([4]; at 0.01 µM): -5.8%
- % of inhibition ([4]; at 0.04 µM): -2.4%
- % of inhibition ([4]; at 0.2 µM): 6.9%
- % of inhibition ([4]; at 1 µM): -1.1%
- % of inhibition ([4]; at 5 µM): -11.5%
Structure (SMILES): CC[C@@H]1[C@H](F)C(=O)N[C@@H]1COc1nccc2cc(C(N)=O)c(OC)cc12 [ZIMLOVISERTIB]

Structure (SMILES): C=CC(=O)Nc1cc(-n2c(=O)ccc3cnc4ccc(-c5ccc(NS(C)(=O)=O)cc5)cc4c32)ccc1C
- % of control ([5]; at 1 µM): 100%
- % of control ([5]; at 10 µM): 85%

Structure (SMILES): CN(C)CCOc1ccc(-c2nc(-c3ccncc3)c(-c3ccc4c(c3)CC/C4=N\O)[nH]2)cc1
- % of control [6]: 90%

- dTM [7]: -0.7 K
Structure (SMILES): CN(C(=O)c1cnn2cccnc12)c1cc2c(cc1N1CCOCC1)C(=O)N(C[C@@H](F)C(C)(C)O)C2
